Legend:
[1] = target: T1, LXRβ (Homo sapiens, UniProt P55055); assay: ligand sensing assay (LiSA), LXRβ; format: biochemical
T1 sequence (P55055 1-460): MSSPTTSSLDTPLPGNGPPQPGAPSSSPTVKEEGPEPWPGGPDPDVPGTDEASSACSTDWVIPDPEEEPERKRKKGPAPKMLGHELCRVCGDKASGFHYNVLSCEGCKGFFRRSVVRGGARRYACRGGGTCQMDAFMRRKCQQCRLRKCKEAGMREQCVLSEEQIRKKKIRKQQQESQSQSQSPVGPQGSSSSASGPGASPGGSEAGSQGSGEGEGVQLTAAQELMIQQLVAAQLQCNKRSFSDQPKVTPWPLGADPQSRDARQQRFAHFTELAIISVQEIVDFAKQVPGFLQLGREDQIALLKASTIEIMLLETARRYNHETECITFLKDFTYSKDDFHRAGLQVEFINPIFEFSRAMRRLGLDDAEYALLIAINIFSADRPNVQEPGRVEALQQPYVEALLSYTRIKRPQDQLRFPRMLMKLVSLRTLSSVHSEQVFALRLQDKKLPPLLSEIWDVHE
From the text: As used herein, reference to the activity of an LXR agonist at LXRα and LXRβ refer to the activity as measured using the ligand sensing assay (LiSA) described in Spencer et al. Journal of Medicinal Chemistry 2001, 44, 886-897, incorporated herein by reference. […] For example, the methods of the invention can be performed using an LXRβ agonist having activity for LXRβ that is at least 3-fold greater than the activity of the agonist for LXRα, or having activity for LXRβ that is at least 10-fold greater than the activity of the agonist for LXRα, or having activity for LXRβ that is at least 100-fold greater than the activity of said agonist for LXRα, or having activity for LXRβ that is at least within 3-fold of the activity of the agonist for LXRα. The term “greater activity” in the LiSA assay refers to a lower EC50.

[2] = system: activated CD8+ T-cells in B16F10 melanoma; assay: tumor-infiltrating activated CD8+ T-cells in B16F10 tumor-bearing mice (flow cytometry); format: in vivo; conditions: supplemented diet 100 mg/kg/day, tumors isolated day 12-14
Description: All mouse studies were conducted according to a protocol approved by the Institutional Animal Care and Use Committee at the Rockefeller University. C57BL/6 (WT); and Pmel (B6.Cg-Thy1^a/Cy Tg(TcraTcrb)8Rest/J mice were obtained from the Jackson Laboratory. To determine the effect of LXR agonists on in vivo primary tumor growth, mice were injected with 5×10^4 B16F10 melanoma cells. For all tumor growth experiments, cells (suspension in […] of PBS) were mixed 1:1 with matrigel (356231, BD Biosciences, Bedford, Mass.) and subcutaneously injected into the lower flank of 6-8 week-old sex-matched mice. Following formation of tumors, mice were assigned to the following treatment groups as described below. All drug-formulated diets were prepared by Research Diets. […]
(§1) At the indicated day, tumors were isolated from euthanized mice and minced into small (˜1 mm^2) pieces with a scalpel and then enzymatically dissociated. […] After staining, cells were subsequently analyzed by flow cytometry using an LSRII flow cytometer (BD Biosciences). Data was analyzed using FlowJo software. […]
After tumor cell injection, animals were palpated every two days for tumor formation. […] Tumor dimensions were measured using digital calipers, and tumor volume was calculated as (small diameter)^2×(large diameter)/2. […]

[3] = system: myeloid-derived suppressor cells (MDSCs) in B16F10 melanoma; assay: tumor-infiltrating MDSCs in B16F10 tumor-bearing mice (flow cytometry, Gr1 immunohistochemistry); format: in vivo
Description: (§2) All mouse studies were conducted according to a protocol approved by the Institutional Animal Care and Use Committee at the Rockefeller University. C57BL/6 mice were obtained from the Jackson Laboratory. For experiments testing the effect of LXR agonists on tumor growth, mice were assigned to a control chow or a chow supplemented with compound 682 (Sigma-Aldrich) or compound 705 (Rgenix, Inc.) at 50, or 100 mg/kg/day, as indicated. For combination drug regimens, mice were fed a compound 705-supplemented diet and co-treated with anti-PD-1 antibody (clone RMP1-14 BioXcell), 10 mg/kg by i.p. injection every 3 days for 3 total doses starting on the day of tumor injection. All drug-formulated diets were prepared by Research Diets.
All mouse studies were conducted according to a protocol approved by the Institutional Animal Care and Use Committee at the Rockefeller University. […]
as §1
At the indicated day, blood was drawn from mice and treated with RBC Lysis Buffer (Sigma) followed by filtration through a […] filter (Corning Inc) to obtain a single cell suspension of lymphocytes. […] After staining, cells were subsequently analyzed by flow cytometry using an LSRII flow cytometer (BD Biosciences). Data was analyzed using FlowJo software.
For MDSC quantification studies, frozen tumor sections (no fixation) were stained with an antibody against Gr1 (1:1000; BioXcell). […]

[4] = system: MDSCs; assay: MDSC abundance assay; format: cell-based, mice; conditions: 1 μM, 3 hours
Description: MDSCs were isolated from the spleens of tumor-bearing wild-type or ApoE−/− mice, as indicated, using the MACS Myeloid-Derived Suppressor Cell Isolation Kit (Miltenyi Biotech) according to manufacturer's protocol. MDSCs were then incubated in RPMI (Sigma) supplemented with 10% FBS and either COMPOUND 705 (dissolved in 2% DMSO at the indicated concentration) or control (2% DMSO) and subsequently incubated at 37° C. for the indicated time. Abundance was assessed by quantifying the percent of live cells using propidium Iodide staining. […]

[5] = system: CD8+ T-cells co-cultured with MDSCs; assay: T-cell suppression assay; format: cell-based; conditions: 24 hours co-culture with MDSCs from treated tumor-bearing mice
Description: CD8+ cells were purified from single cell suspensions from spleens of mice using the MACS CD8+ T-cell isolation kit (Miltenyi Biotech) according to manufacturer's protocol. Cells were then labeled with cell tracker reagent (BV). The labeled CD8+ T cells were plated on 96-well plates coated with 1 mg/ml anti-CD3 and anti-CD28 beads (Dynabeads® Mouse T-Activator CD3/CD28 for T-Cell Expansion and Activation; Gibco). Recombinant IL-2 (Gibco) was then added to the wells according to manufacturer's protocol. MDSC were then isolated using the MACS Myeloid-Derived Suppressor Cell Isolation Kit (Miltenyi Biotech) according to manufacturer's protocol and subsequently added in the indicated MDSC:T-cell ratios. Cells were incubated at 37° C. for 24-36 hours. T-cell activation was measured by flow cytometry by assessing the percent of T-cells positive for IFNγ staining with diluted BV dye.

[6] = system: B16F10 melanoma; assay: B16F10 tumors, compound 705 plus adoptive transfer of Pmel CD8+ T-cells (survival); format: in vivo, mice; conditions: B16F10, diet 50 mg/kg/day plus 2×10^6 Pmel CD8+ T-cells
Description: All mouse studies were conducted according to a protocol approved by the Institutional Animal Care and Use Committee at the Rockefeller University. C57BL/6 (WT); and Pmel (B6.Cg-Thy1^a/Cy Tg(TcraTcrb)8Rest/J mice were obtained from the Jackson Laboratory. To determine the effect of LXR agonists on in vivo primary tumor growth, mice were injected with 5×10^4 B16F10 melanoma cells. For all tumor growth experiments, cells (suspension in […] of PBS) were mixed 1:1 with matrigel (356231, BD Biosciences, Bedford, Mass.) and subcutaneously injected into the lower flank of 6-8 week-old sex-matched mice. Following formation of tumors, mice were assigned to the following treatment groups as described below. All drug-formulated diets were prepared by Research Diets. After the indicated number of days, either peripheral blood or tumors were isolated to obtain tumor-infiltrating lymphocytes for flow-cytometry analysis as described below.
After tumor cell injection, tumor volumes were measured every two days. Upon tumors measuring 90-100 mm^3 in volume (day 6-7), mice were randomly assigned to a control diet treatment or a COMPOUND 705-supplemented diet (50 mg/kg/day; Rgenix).
The following day, 2×10^6 CD8+ T-cells from Pmel mice were adoptively transferred via retro-orbital injection into both control and COMPOUND 705 treated mice. […]

[7] = system: B16F10 melanoma; assay: B16F10 tumors, compound 705 plus anti-PD-1 antibody; format: in vivo, mice; conditions: B16F10, diet 50 mg/kg/day plus anti-PD-1 antibody 10 mg/kg I.P. every 3 days
Description: as §2, with “Diets. […]” for “Diets.”
as §1
After tumor cell injection, animals were treated with anti-PD-1 antibody at a dose of 10 mg/kg (clone RMP1-14; BioXcell), by intraperitoneal (I.P.) injection every 3 days for 3 total doses starting on the day of tumor injection. […] Tumor dimensions were measured using digital calipers, and tumor volume was calculated as (small diameter)^2×(large diameter)/2. […]

[8] = target: T2, LXRα (Homo sapiens, UniProt Q13133); conditions: cited from earlier work
T2 sequence (Q13133 1-447): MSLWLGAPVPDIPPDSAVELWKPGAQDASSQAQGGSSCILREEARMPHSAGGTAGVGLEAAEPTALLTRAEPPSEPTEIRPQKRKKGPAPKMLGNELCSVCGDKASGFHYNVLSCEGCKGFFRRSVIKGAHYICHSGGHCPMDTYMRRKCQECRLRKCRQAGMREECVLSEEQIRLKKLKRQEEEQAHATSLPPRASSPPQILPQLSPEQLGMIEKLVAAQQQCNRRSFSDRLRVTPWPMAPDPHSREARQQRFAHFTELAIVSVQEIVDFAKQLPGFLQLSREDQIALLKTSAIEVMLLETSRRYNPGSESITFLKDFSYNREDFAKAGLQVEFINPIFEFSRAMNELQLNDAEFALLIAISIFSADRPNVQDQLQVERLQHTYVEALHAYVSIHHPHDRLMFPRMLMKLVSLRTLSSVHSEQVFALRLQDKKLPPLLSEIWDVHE

[9] = daily I.P. injection 2 mg, day 12-14

## O=C(O)Cc1cccc(OCCCN(Cc2cccc(C(F)(F)F)c2Cl)CC(c2ccccc2)c2ccccc2)c1 [Compound 682]
[1]
  fold greater activity for LXRβ compared to LXRα: approximately 6 fold
[2]
  number of tumor-infiltrating activated CD8+ T-cells: increases the number of tumor-infiltrating activated CD8+ T-cells
[3]; supplemented diet 100 mg/kg/day, tumors isolated day 12-14
  number of tumor-infiltrating myeloid-derived suppressor cells (MDSCs): reduces the number of tumor-infiltrating myeloid-derived suppressor cells

## CC(CCOc1cccc(CC(=O)O)c1)N(Cc1cccc(C(F)(F)F)c1Cl)CC(c1ccccc1)c1ccccc1 (stereo not shown) [Compound 705]
[4]
  abundance of MDSCs in vitro: reduces abundance of MDSCs in vitro
[5]
  MDSC-mediated suppression of CD8+ T-cells: reverses MDSC-mediated suppression of CD8+ T-cells
[6]
  anti-tumor activity of adoptively transferred melanoma-targeting CD8+ T-cells: enhances the anti-tumor activity
[7]
  anti-tumor T-cell response induced with anti-PD-1 antibody therapy: enhances the anti-tumor T-cell response
[3]; [9]
  number of granulocytic MDSCs (G-MDSC): reduces the number
  number of monocytic MDSCs (M-MDSC): reduces the number

## CC(C)(O)c1cn(-c2ccc(-c3cccc(S(C)(=O)=O)c3)cc2)c(C(C)(C)c2ccccc2Cl)n1 [Compound 718]
[8]
  EC50: 101 to 1000 nM

Reference: US11648220B2, “Methods for the treatment of myeloid derived suppressor cells related disorders” (The Rockefeller University, priority 2016, dated 2023)
